These results are taken from patent publication US20160002297A1, “THERAPEUTIC AGENTS” (NATIONAL UNIVERSITY OF SINGAPORE, priority 2013, published 2016).

The structures appear in SMILES notation. Positions of bridges follow the written chain, without caps; N, C: chain ends. Residues, ends and D or L forms follow the SMILES beside them.

The subject of one test is B16 melanoma. As to the kind of experiment: Pre-established subcutaneous B16 melanoma growth in mice, intravenous treatment. The class given is in vivo, mouse. On the procedure:
X-axis represents the days after inoculation of 5×10^5 tumor cells. Groups consisted of mice receiving cRAA and cRKD given in six doses of 250 μg through tail vein injection on days 8, 9, 10, 11, 12 and 13 (5 mice in each group, each mice with one tumor). (b) Tumor weight at the end of the experiment (day 14). (c) Dissected tumors at the end of experiment. […] Paraffin sections of B16 tumors were probed for microvascular density (MVD), tumor cell proliferation and apoptosis through immunofluoresence staining using anti-CD31, anti-PCNA and TUNEL staining respectively. (f) Quantification of MVD, cell proliferation and apoptosis. Plots represent the mean of 3 fields per section, 3 sections per tumor and 2 tumors per group. **P<0.01. Error bars denote SEM.

A further test concerns the target GRP78 (Homo sapiens, UniProt P11021). As to the kind of experiment: ELISA solid phase-binding assay for binding affinity to GRP78. The note with it: purified recombinant GRP78. On the procedure:
ELISA solid phase-binding assay was used to determine the dissociation constant between ISM or cyclic peptide and GRP78 as previously described with minor modification (Nishiuchi, Takagi et al. 2006). 96-well plates were coated with 50 μl of 10 nM cyclic peptide at 4° C. overnight. Nonspecific binding sites were blocked with 1% BSA for 2 h at room temperature. Increasing concentrations of GRP78 were incubated with immobilized cyclic peptide. After washing, the amount of bound GRP78 was quantified by ELISA. The value for Kd was calculated by GraphPad Prism software.
In general terms: An ELISA detects its analyte on a solid surface through an enzyme-linked reagent.

Another test relates to HUVECs. As to the kind of experiment: Tube formation assay on Matrigel. The test is classed as cell-based, human. On the procedure: HUVECs (1×10^4) were pre-treated with peptides of various concentrations for 30 min before being plated onto the polymerized Matrigel (Millipore, USA) in 15-well μ-slide (Ibidi, Germany). After 4-6 h, capillary network was documented using Zeiss Axiovert200 inverted microscope (Maple Grove, Minn., USA). Tube length was quantified by measuring the length of branches in representative fields using ImageJ software. Plots represented the mean of 3 wells of tubular length in 15-well μ-slide (t SEM).

As to `N=C(N)NCCC[C@@H]1NC(=O)[C@@H](N)CSSC[C@@H](C(=O)O)NC(=O)[C@H](CC(=O)O)NC(=O)[C@H](CCCCN)NC1=O` [cRKD, Cyclic CRKDC peptide] (H-CRKDC-OH; disulfide 1-5; N-terminus and C-terminus assumed), in the test on B16 melanoma (anti-CD31, anti-PCNA and TUNEL staining), the “tumor angiogenesis, proliferation and apoptosis in pre-established B16 tumor” value is “suppressed tumor angiogenesis, proliferation and induced apoptosis”. In addition, the “vascularization of pre-established B16 tumors” value in the test on B16 melanoma (compared to control) is “reduced vascularization”. In the test on B16 melanoma (six doses of 250 μg tail vein on days 8-13), the “pre-established B16 tumor growth” value is “inhibits pre-established subcutaneous B16 melanoma growth”. For the same compound, at GRP78, the Kd came to 9.6 nM. Besides, the “anti-angiogenic activity at 1 μM” value in the test on HUVECs (1 μM peptide) is given as “inhibited angiogenesis with similar potency”. Besides, the “inhibition of EC tube-like structure formation on Matrigel” value in the test with HUVECs (dose-dependence) is reported as “does-dependently inhibited EC tube-like structure formation”.

The term Kd denotes a measure of binding affinity in units of concentration.
